Data taken from BindingDB's records for doi:10.1126/science.2551039 (UniversitÄT Heidelberg, 1989).
Values joined by “and” are separate entries in the source; they are usually repeats but may differ in a detail not shown here. Equal values may be shown once.

How the values were obtained:
[1] = target: T1, Gamma-aminobutyric acid receptor subunit alpha-2 (Homo sapiens, UniProt P47869)
T1 sequence (P47869 whole entry): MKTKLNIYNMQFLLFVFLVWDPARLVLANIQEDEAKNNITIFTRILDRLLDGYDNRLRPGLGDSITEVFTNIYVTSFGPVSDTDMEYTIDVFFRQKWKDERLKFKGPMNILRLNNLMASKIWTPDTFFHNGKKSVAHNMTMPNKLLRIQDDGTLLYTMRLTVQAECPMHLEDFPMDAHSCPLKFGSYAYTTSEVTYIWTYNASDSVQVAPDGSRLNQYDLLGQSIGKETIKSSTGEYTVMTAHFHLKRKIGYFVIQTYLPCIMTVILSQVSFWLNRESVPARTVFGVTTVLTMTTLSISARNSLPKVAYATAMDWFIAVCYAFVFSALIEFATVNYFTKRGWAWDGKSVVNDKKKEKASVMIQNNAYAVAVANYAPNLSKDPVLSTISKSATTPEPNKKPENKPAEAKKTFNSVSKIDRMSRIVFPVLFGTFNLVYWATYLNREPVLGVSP

[2] = target: T2, Gamma-aminobutyric acid receptor subunit alpha-3 (Homo sapiens, UniProt P34903)
T2 sequence (P34903 whole entry): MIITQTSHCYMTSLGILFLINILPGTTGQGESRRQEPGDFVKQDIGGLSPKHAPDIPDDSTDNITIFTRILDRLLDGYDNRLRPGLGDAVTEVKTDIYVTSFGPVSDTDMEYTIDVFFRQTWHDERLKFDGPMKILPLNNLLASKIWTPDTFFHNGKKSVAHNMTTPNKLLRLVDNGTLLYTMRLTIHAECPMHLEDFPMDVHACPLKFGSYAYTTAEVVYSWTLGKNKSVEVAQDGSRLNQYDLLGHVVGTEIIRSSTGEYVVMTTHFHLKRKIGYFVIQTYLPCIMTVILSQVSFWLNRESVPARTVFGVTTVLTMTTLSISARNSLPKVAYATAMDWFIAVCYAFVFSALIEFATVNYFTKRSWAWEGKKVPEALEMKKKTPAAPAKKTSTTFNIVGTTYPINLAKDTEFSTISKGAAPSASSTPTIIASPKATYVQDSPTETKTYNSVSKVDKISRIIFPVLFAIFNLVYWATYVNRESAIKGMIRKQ

[3] = target: T3, Gamma-aminobutyric acid receptor subunit alpha-1 (Homo sapiens, UniProt P14867)
T3 sequence (P14867 whole entry): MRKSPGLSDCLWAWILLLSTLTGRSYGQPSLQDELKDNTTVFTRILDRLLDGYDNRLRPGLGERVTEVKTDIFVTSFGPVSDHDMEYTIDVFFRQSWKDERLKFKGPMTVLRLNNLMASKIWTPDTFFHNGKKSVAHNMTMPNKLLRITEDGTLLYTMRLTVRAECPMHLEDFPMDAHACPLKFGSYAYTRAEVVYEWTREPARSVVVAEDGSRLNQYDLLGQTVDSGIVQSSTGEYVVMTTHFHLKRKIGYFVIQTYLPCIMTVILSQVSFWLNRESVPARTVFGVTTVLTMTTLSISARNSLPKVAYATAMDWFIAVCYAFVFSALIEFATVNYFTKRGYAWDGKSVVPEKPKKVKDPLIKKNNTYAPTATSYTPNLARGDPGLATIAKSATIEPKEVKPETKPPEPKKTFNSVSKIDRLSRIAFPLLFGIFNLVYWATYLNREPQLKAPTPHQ

| Compound | Ki [1] | Ki [2] | Ki [3] |
| --- | --- | --- | --- |
| COC(=O)c1cc2c(cn1)[nH]c1ccccc12 | 2.9 nM | 4.1 nM | 0.78 nM |
| O=C1CN=C(c2ccccc2Cl)c2cc([N+](=O)[O-])ccc2N1 [5-(2-chlorophenyl)-7-nitro-1,3-dihydro-2H-1,4-benzodiazepin-2-one] | 1.7 nM | 2 nM | 1.27 nM |
| Cc1nnc2ccc(-c3cccc(C(F)(F)F)c3)nn12 | 2000 nM and 1740 nM | 1790 nM and 1620 nM | 405 nM and 108 nM |
| CCc1c(C(=O)OC)ncc2[nH]c3cc(OC)c(OC)cc3c12 [NSC_104999] | 14.4 nM | 10.6 nM | 5.3 nM |
| O=C1CN=C(c2ccccc2F)c2cc(Cl)ccc2N1CC(F)(F)F [NSC_93250] | 236 nM | 205 nM | – |
